# Data: patent publication US20230227442A1, “HETEROALKYL DIHYDROQUINOLINE SULFONAMIDE COMPOUNDS” (AMGEN INC., priority 2020, published 2023)
# How the values were obtained:
# Human Nav1.7 = target: T1, Human Nav1.7 (Homo sapiens, UniProt Q15858); test: Ionworks Barracuda (IWB) automated patch clamp assay; format: cell-based; conditions: population patch clamp, HEK cells, 4 min compound incubation at -20 mV; read-out: hNaV1.7 IWB-U IC50
# T1 construct: expressed in transfected cells; host or cells: Spiking HEK cells (without Kir2.1 transfection)
# T1 sequence (Q15858 whole entry): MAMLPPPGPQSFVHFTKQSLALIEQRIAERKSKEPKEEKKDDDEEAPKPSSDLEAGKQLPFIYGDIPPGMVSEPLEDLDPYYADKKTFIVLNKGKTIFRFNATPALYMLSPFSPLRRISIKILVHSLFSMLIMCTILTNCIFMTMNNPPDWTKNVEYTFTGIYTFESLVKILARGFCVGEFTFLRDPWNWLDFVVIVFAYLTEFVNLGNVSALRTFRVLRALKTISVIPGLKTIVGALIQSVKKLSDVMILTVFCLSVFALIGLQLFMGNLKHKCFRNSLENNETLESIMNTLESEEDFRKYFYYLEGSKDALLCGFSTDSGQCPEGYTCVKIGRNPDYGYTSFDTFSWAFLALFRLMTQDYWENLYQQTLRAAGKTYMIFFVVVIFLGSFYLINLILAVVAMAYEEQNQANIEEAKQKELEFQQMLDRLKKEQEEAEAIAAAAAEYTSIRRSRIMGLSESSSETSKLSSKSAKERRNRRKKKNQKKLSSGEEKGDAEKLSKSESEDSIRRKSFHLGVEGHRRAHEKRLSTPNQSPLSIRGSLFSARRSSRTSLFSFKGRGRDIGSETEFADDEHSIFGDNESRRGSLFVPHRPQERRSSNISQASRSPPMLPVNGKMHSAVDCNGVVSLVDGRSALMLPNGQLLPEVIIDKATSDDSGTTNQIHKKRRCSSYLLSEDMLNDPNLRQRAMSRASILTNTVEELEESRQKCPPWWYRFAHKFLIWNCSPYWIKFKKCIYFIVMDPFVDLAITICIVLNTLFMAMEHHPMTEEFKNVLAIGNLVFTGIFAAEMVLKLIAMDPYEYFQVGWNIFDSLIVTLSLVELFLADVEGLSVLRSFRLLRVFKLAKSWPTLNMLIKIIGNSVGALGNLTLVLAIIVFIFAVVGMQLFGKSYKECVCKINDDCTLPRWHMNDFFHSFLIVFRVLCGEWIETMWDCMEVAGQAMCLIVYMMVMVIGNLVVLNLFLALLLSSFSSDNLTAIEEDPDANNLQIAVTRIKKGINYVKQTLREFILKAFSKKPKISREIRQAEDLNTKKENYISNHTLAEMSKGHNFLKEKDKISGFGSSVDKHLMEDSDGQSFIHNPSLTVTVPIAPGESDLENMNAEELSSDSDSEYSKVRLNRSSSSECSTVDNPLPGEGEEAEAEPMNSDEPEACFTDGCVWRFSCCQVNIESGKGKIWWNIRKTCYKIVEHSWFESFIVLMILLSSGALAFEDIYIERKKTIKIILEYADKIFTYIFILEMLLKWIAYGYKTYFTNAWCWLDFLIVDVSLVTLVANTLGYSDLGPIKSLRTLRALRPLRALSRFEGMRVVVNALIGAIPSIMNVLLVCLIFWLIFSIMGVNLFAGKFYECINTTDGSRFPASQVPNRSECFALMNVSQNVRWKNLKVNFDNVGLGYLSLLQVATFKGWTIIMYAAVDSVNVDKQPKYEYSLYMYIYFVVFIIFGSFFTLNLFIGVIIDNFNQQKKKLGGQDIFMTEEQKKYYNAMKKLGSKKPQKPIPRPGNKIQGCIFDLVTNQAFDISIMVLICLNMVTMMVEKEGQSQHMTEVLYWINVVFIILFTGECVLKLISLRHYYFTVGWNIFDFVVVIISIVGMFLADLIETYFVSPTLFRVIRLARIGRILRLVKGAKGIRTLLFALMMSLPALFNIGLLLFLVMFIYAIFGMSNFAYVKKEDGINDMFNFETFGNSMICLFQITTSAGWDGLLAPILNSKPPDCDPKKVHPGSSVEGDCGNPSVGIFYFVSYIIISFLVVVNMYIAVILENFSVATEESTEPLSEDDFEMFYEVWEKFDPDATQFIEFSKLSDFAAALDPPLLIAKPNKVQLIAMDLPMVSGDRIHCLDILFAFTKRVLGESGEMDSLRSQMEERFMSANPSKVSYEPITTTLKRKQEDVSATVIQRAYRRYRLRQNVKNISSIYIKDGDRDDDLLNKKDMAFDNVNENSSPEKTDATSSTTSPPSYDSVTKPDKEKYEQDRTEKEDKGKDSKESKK
# Procedure: Ionworks Barracuda Automated Patch Clamp Assay (Same Protocol for Both Human and Mouse)
# Human Nav1.7 currents were recorded in population patch-clamp mode with the IWB automated electrophysiology system (Molecular Devices, LLC, Sunnyvale, Calif.). Spiking HEK cells (without Kir2.1 transfection) were cultured and prepared for recordings as previously described for IonWorks Quattro testing^1. The external solution consisted of the following (in mM): NaCl 140, KCl 5, CaCl2 2, MgCl2 1, HEPES 10, and glucose 11, pH 7.4, with N-methyl-D-glucamine at 320 mOsmol. The internal solution consisted of the following (in mM): KCl 70, KF 70, MgCl2 0.25, HEDTA 5, and HEPES 10, pH 7.25, with Nmethyl-D-glucamine, 300 mOsmol. From a holding potential of −110 mV, currents were elicited by a train of 26 depolarizations of 150 ms duration to −20 mV at a frequency of 5 Hz. Cells were then clamped to −20 mV for a period of 4 minutes in the presence of a single concentration of test compound. Following this compound incubation period, cells were clamped to −110 mV for three seconds to recover unbound channels and put through the same 26 pulse voltage protocol as above. Peak inward current during the 26th pulse to −20 mV in the presence of compound was divided by the peak inward current evoked by the 26th pulse to −20 mV in the absence of compound to determine percent inhibition. Concentration-response curves of percent inhibition as a function of concentration were generated to calculate IC50 values as described in Kornecook, T. J.; Yin, R.; Altmann, S.; et al. Pharmacologic Characterization of AMG8379, a Potent and Selective Small Molecule Sulfonamide Antagonist of the Voltage-Gated Sodium Channel NaV1. 7. J. Pharmacol. Exp. Ther. 2017, 362, 146-160.
# CYP3A4 = test: Human CYP 3A4 induction assay (mRNA, cryopreserved human hepatocytes); format: in vitro ADME; conditions: 72 hours, percent of control (POC); for CYP3A4 mRNA Induct Hu 2 uM POC: 2 uM test compound; for CYP3A4 mRNA Induct Hu 10 uM POC: 10 uM test compound
# Procedure: Human CYP 3A4 Induction Assay
# Cryopreserved human hepatocytes were seeded in 96-well collagen coated plates at 70,000 cells per well in hepatocyte plating media (HPM, final concentrations: lx Dulbecco's Modified Eagle's Medium, 0.1 μM dexamethasone, 10% fetal bovine serum, lx ITS, 1×PSG) followed by incubation at 37° C. under 5% CO2 and 90% relative humidity for 2 days to allow hepatocytes to form a confluent layer. On Day 3, hepatocytes were treated with either test compound or rifampin (20 μM, positive control for CYP3A induction) prepared in hepatocyte incubation media ((HIM, final concentrations: 1× William's Medium E, 0.1 μM dexamethasone, 1×ITS, 1×PSG). Treatment was performed for 72 hours with either 2 concentrations (2 μM or 10 μM) or a range of concentrations (0.001 μM to 100 μM) of the test compound to obtain full dose-response curve. Fresh media containing the relevant concentrations of the test compound was replaced every day until the samples were processed. After 72 hours of incubation, samples were processed for mRNA analysis using bDNA technology using manufacturer's instructions (Affymetrix, Fremont, Calif.). Cell viability was tested at the end of the experiment using MTT assay kit (Roche Diagnostics, Basel, Switzerland). Data was analyzed and presented as percent of control (POC) and Emax and EC50 obtained when appropriate according to guidance from Center for Drug Evaluation and Research (CDER), 2006, Guidance for Industry, Drug Interaction Studies—Study Design, Data Analysis, and Implications for Dosing and Labeling.
# Cryopreserved human hepatocytes were seeded in 96-well collagen coated plates at 70,000 cells per well in hepatocyte plating media (HPM, final concentrations: lx Dulbecco's Modified Eagle's Medium, 0.1 μM dexamethasone, 10% fetal bovine serum, lx ITS, 1×PSG) followed by incubation at 37° C. under 5% CO2 and 90% relative humidity for 2 days to allow hepatocytes to form a confluent layer. On Day 3, hepatocytes were treated with either test compound or rifampin (20 μM, positive control for CYP3A induction) prepared in hepatocyte incubation media ((HIM, final concentrations: 1× William's Medium E, 0.1 μM dexamethasone, 1×ITS, 1×PSG). Treatment was performed for 72 hours with either 2 concentrations (2 μM or 10 μM) or a range of concentrations (0.001 μM to 100 μM) of the test compound to obtain full dose-response curve. Fresh media containing the relevant concentrations of the test compound was replaced every day until the samples were processed. After 72 hours of incubation, samples were processed for mRNA analysis using bDNA technology using manufacturer's instructions (Affymetrix, Fremont, Calif.). Cell viability was tested at the end of the experiment using MTT assay kit (Roche Diagnostics, Basel, Switzerland). Data was analyzed and presented as percent of control (POC) and Emax and EC50 obtained when appropriate, as described in Halladay, J. et al, 2012, An “all-inclusive” 96-well cytochrome P450 induction method: Measuring enzyme activity, mRNA levels, protein levels, and cytotoxicity from one well using cryopreserved human hepatocytes, Pharmacological and Toxicological Methods, 66:270-275.
SMILES,IC50 (Human Nav1.7),CYP3A4 mRNA Induct Hu 2 uM POC (CYP3A4),CYP3A4 mRNA Induct Hu 10 uM POC (CYP3A4)
"COc1cc(O[C@H](C)C(F)(F)F)c(F)cc1-n1c(=O)ccc2cc(S(=O)(=O)Nc3ccon3)c(F)cc21 (atropisomer, axis not shown; (P)) [Example 16, (P)-(R)-7-fluoro-1-(5-fluoro-2-methoxy-4-((1,1,1-trifluoropropan-2-yl)oxy)phenyl)-N-(isoxazol-3-yl)-2-oxo-1,2-dihydroquinoline-6-sulfonamide]",24 nM,3.9%,7.2%
"COc1cc(O[C@@H](C)C(F)(F)F)c(F)cc1-n1c(=O)ccc2cc(S(=O)(=O)Nc3ccon3)ccc21 (atropisomer, axis not shown; (P)) [Example 18, (P)-(S)-1-(5-fluoro-2-methoxy-4-((1,1,1-trifluoropropan-2-yl)oxy)phenyl)-N-(isoxazol-3-yl)-2-oxo-1,2-dihydroquinoline-6-sulfonamide]",27 nM,2.6%,9.5%
"COc1cc(O[C@H](C)C(F)(F)F)c(F)cc1-n1c(=O)ccc2cc(S(=O)(=O)Nc3ccon3)ccc21 (atropisomer, axis not shown; (P)) [Example 21, (P)-(R)-1-(5-fluoro-2-methoxy-4-((1,1,1-trifluoropropan-2-yl)oxy)phenyl)-N-(isoxazol-3-yl)-2-oxo-1,2-dihydroquinoline-6-sulfonamide]",32 nM,0.4%,1.8%
"COc1cc(OC(F)(F)F)c(F)cc1-n1c(=O)ccc2cc(S(=O)(=O)Nc3ccon3)ccc21 (atropisomer, axis not shown; (P)) [Example 9, (P)-1-(5-fluoro-2-methoxy-4-(trifluoromethoxy)phenyl)-N-(isoxazol-3-yl)-2-oxo-1,2-dihydroquinoline-6-sulfonamide]",21 nM,7.8%,22.2%
"COc1cc(O[C@@H](C)C(F)(F)F)c(F)cc1-n1c(=O)ccc2cc(S(=O)(=O)Nc3ccon3)c(F)cc21 (atropisomer, axis not shown; (P)) [Example 17, (P)-(S)-7-fluoro-1-(5-fluoro-2-methoxy-4-((1,1,1-trifluoropropan-2-yl)oxy)phenyl)-N-(isoxazol-3-yl)-2-oxo-1,2-dihydroquinoline-6-sulfonamide]",27 nM,16.3%,39.8%
COc1cc(OCC(F)(F)F)c(F)cc1-n1c(=O)ccc2cc(S(=O)(=O)Nc3ccon3)c(F)cc21 [Example 14],23 nM,3.6%,21.4%
"COc1cc(OCCC(F)(F)F)c(F)cc1-n1c(=O)ccc2cc(S(=O)(=O)Nc3ccon3)ccc21 (atropisomer, axis not shown; (P)) [Example 20, (P)-1-(5-fluoro-2-methoxy-4-(3,3,3-trifluoropropoxy)phenyl)-N-(isoxazol-3-yl)-2-oxo-1,2-dihydroquinoline-6-sulfonamide]",30 nM,10.8%,29.6%
"COc1cc(O[C@@H](C)C(F)(F)F)c(F)cc1-n1c(=O)ccc2cc(S(=O)(=O)Nc3ncccn3)ccc21 (atropisomer, axis not shown; (P)) [Example 24, (P)-(S)-1-(5-fluoro-2-methoxy-4-((1,1,1-trifluoropropan-2-yl)oxy)phenyl)-2-oxo-N-(pyrimidin-2-yl)-1,2-dihydroquinoline-6-sulfonamide]",68 nM,0.8%,1.2%

# The remaining compounds from weak to strong by IC50 (Human Nav1.7), led by results:
IC50 (Human Nav1.7),CYP3A4 mRNA Induct Hu 2 uM POC (CYP3A4),CYP3A4 mRNA Induct Hu 10 uM POC (CYP3A4),SMILES
21 nM,10.8%,35.7%,"COc1cc(OCC(F)(F)F)c(F)cc1-n1c(=O)ccc2cc(S(=O)(=O)Nc3ccon3)ccc21 (atropisomer, axis not shown; (P)) [Example 10, (P)-1-(5-fluoro-2-methoxy-4-(2,2,2-trifluoroethoxy)phenyl)-N-(isoxazol-3-yl)-2-oxo-1,2-dihydroquinoline-6-sulfonamide]"
21 nM,7.0%,35.3%,"COc1cc(O[C@H](C)C(F)(F)F)c(F)cc1-n1c(=O)ccc2cc(S(=O)(=O)Nc3ncccn3)ccc21 [Example 13, P-(R)-1-(5-fluoro-2-methoxy-4-((1,1,1-trifluoropropan-2-yl)oxy)phenyl)-2-oxo-N-(pyrimidin-2-yl)-1,2-dihydroquinoline-6-sulfonamide]"
15 nM,6.1%,24.5%,"COc1cc(SC(F)(F)F)c(F)cc1-n1c(=O)ccc2cc(S(=O)(=O)Nc3ccon3)ccc21 (atropisomer, axis not shown; (P)) [Example 8, (P)-1-(5-fluoro-2-methoxy-4-((trifluoromethyl)thio)phenyl)-N-(isoxazol-3-yl)-2-oxo-1,2-dihydroquinoline-6-sulfonamide]"
11 nM,3.4%,7.5%,"COc1cc(SCC(F)(F)F)c(F)cc1-n1c(=O)ccc2cc(S(=O)(=O)Nc3ccon3)ccc21 (atropisomer, axis not shown; (P)) [Example 5, (P)-1-(5-fluoro-2-methoxy-4-((2,2,2-trifluoroethyl)thio)phenyl)-N-(isoxazol-3-yl)-2-oxo-1,2-dihydroquinoline-6-sulfonamide]"
11 nM,0.2%,0.2%,"COc1cc(COC(F)(F)F)c(F)cc1-n1c(=O)ccc2cc(S(=O)(=O)Nc3ccon3)ccc21 (atropisomer, axis not shown; (P)) [Example 4, (P)-1-(5-fluoro-2-methoxy-4-((trifluoromethoxy)methyl)phenyl)-N-(isoxazol-3-yl)-2-oxo-1,2-dihydroquinoline-6-sulfonamide]"
11 nM,20.9%,54.2%,"COc1cc(SC(F)(F)F)c(F)cc1-n1c(=O)ccc2cc(S(=O)(=O)Nc3ccon3)c(F)cc21 (atropisomer, axis not shown; (P)) [Example 7, (P)-7-fluoro-1-(5-fluoro-2-methoxy-4-((trifluoromethyl)thio)phenyl)-N-(isoxazol-3-yl)-2-oxo-1,2-dihydroquinoline-6-sulfonamide]"
8 nM,,,"COc1cc(SC(F)(F)F)c(Cl)cc1-n1c(=O)ccc2cc(S(=O)(=O)Nc3ccon3)ccc21 (atropisomer, axis not shown; (P)) [Example 2, (P)-1-(5-chloro-2-methoxy-4-((trifluoromethyl)thio)phenyl)-N-(isoxazol-3-yl)-2-oxo-1,2-dihydroquinoline-6-sulfonamide]"
